Measurements as given in ChEMBL document CHEMBL1201862, “PubChem BioAssay data set” (2004).
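Test compounds were applied to cells in 96-well plates for 48 hours at 5 doses. The concentration for 50% growth inhibition is given as GI50.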 Activity calls are given as the source filed them. Cut-off read from the data, not from the text of the source: active = GI50 up to about 1.1 µM and inactive = higher.

Legend:
Assay in all cases: NCI tumour cell line growth inhibition, 48 h
786-0 = system: 786-0
ACHN = system: ACHN
CCRF-CEM = system: CCRF-CEM
COLO 205 = system: COLO 205
HCC 2998 = system: HCC 2998
HCT-116 = system: HCT-116
HOP-92 = system: HOP-92
HT-29 = system: HT-29
IGROV-1 = system: IGROV-1
M14 = system: M14
NCI-H522 = system: NCI-H522
OVCAR-3 = system: OVCAR-3
OVCAR-4 = system: OVCAR-4
OVCAR-5 = system: OVCAR-5
RPMI-8226 = system: RPMI-8226
SK-MEL-2 = system: SK-MEL-2
SNB-19 = system: SNB-19
UACC-257 = system: UACC-257

Measured: GI50

CCCCC1CC(c2cccc([N+](=O)[O-])c2)=NO1 (stereo not given)
inactive: 786-0 > 100 µM | ACHN > 100 µM | CCRF-CEM 48.5 µM | COLO 205 > 100 µM | HCC 2998 58.5 µM | HCT-116 > 100 µM | HOP-92 > 100 µM | HT-29 28.6 µM | IGROV-1 > 100 µM | M14 > 100 µM | NCI-H522 29.5 µM | OVCAR-3 76.2 µM | OVCAR-4 > 100 µM | OVCAR-5 > 100 µM | RPMI-8226 74.3 µM | SK-MEL-2 > 100 µM | SNB-19 > 100 µM | UACC-257 48.3 µM

CN(/N=C/c1ccnc2ccccc12)c1ccc([N+](=O)[O-])cc1[N+](=O)[O-]
inactive: 786-0 30.6 µM | ACHN > 100 µM | CCRF-CEM > 100 µM | COLO 205 > 100 µM | HCC 2998 > 100 µM | HOP-92 46.9 µM | HT-29 > 100 µM | IGROV-1 > 100 µM | M14 > 100 µM | NCI-H522 > 100 µM | OVCAR-3 19.7 µM | OVCAR-4 > 100 µM | OVCAR-5 > 100 µM | RPMI-8226 > 100 µM | SK-MEL-2 28.6 µM | SNB-19 77.4 µM | UACC-257 > 100 µM

CCCCCCCc1cc(OC(=O)c2c(C)cc(OC)cc2O)cc(O)c1C(=O)O
inactive: 786-0 19 µM | ACHN 24.7 µM | CCRF-CEM 24.7 µM | COLO 205 20.7 µM | HCC 2998 20.3 µM | HOP-92 26 µM | HT-29 32.5 µM | IGROV-1 22.7 µM | M14 21.3 µM | NCI-H522 23.8 µM | OVCAR-3 14.6 µM | OVCAR-4 28.1 µM | OVCAR-5 16.6 µM | RPMI-8226 22.6 µM | SK-MEL-2 19.1 µM | SNB-19 26.4 µM | UACC-257 30.4 µM

C1CC2=C(C1)C1=S(S2)SC2=C1CCC2
inactive: 786-0 > 100 µM | ACHN 45.7 µM | CCRF-CEM > 100 µM | COLO 205 > 100 µM | HCC 2998 > 100 µM | HCT-116 > 100 µM | HOP-92 > 100 µM | HT-29 > 100 µM | IGROV-1 > 100 µM | M14 > 100 µM | NCI-H522 > 100 µM | OVCAR-3 > 100 µM | OVCAR-4 > 100 µM | OVCAR-5 > 100 µM | RPMI-8226 > 100 µM | SK-MEL-2 > 100 µM | SNB-19 > 100 µM | UACC-257 > 100 µM

CC(=O)/C=C/c1ccc(C)cc1
inactive: 786-0 > 100 µM | ACHN > 100 µM | CCRF-CEM > 100 µM | COLO 205 > 100 µM | HCC 2998 > 100 µM | HCT-116 > 100 µM | HOP-92 > 100 µM | HT-29 > 100 µM | IGROV-1 > 100 µM | M14 > 100 µM | NCI-H522 > 100 µM | OVCAR-3 > 100 µM | OVCAR-4 > 100 µM | OVCAR-5 > 100 µM | RPMI-8226 > 100 µM | SK-MEL-2 > 100 µM | SNB-19 > 100 µM | UACC-257 > 100 µM

C/C=C/C=N/N(c1nnc(-c2ccccc2)c(-c2ccccc2)n1)S(=O)(=O)c1ccc(C)cc1
inactive: 786-0 6.78 µM | ACHN 11.8 µM | CCRF-CEM 2.49 µM | COLO 205 17.1 µM | HCC 2998 17 µM | HCT-116 8.09 µM | HOP-92 16.2 µM | HT-29 11.7 µM | IGROV-1 13.1 µM | M14 4.69 µM | NCI-H522 4.75 µM | OVCAR-3 12.6 µM | OVCAR-4 13.2 µM | OVCAR-5 19.3 µM | RPMI-8226 4.19 µM | SK-MEL-2 11.4 µM | UACC-257 8.34 µM

CCc1cccc(C)c1NC(=O)CC1Sc2ccccc2NC1=O (stereo not given)
inactive: 786-0 29.2 µM | ACHN 40.8 µM | CCRF-CEM 25.2 µM | COLO 205 53.7 µM | HCC 2998 22.4 µM | HCT-116 34.3 µM | HOP-92 32.8 µM | IGROV-1 88.7 µM | M14 39.4 µM | NCI-H522 20 µM | OVCAR-3 32.6 µM | OVCAR-4 75.3 µM | OVCAR-5 42.4 µM | RPMI-8226 24.4 µM | SK-MEL-2 33.6 µM | SNB-19 57.4 µM | UACC-257 11.4 µM

COC(=O)/C(C#N)=C1\NN=NN1CCCN1CCOCC1
inactive: 786-0 > 100 µM | ACHN > 100 µM | CCRF-CEM > 100 µM | COLO 205 > 100 µM | HCC 2998 > 100 µM | HCT-116 > 100 µM | HOP-92 > 100 µM | HT-29 > 100 µM | IGROV-1 > 100 µM | M14 > 100 µM | NCI-H522 > 100 µM | OVCAR-3 > 100 µM | RPMI-8226 > 100 µM | SNB-19 > 100 µM | UACC-257 > 100 µM

COc1ccc(C2(Cl)C(Cl)(C(F)(F)F)C2(Cl)C(F)(F)F)cc1 (stereo not given)
inactive: 786-0 17.2 µM | ACHN 16.8 µM | CCRF-CEM 3.78 µM | COLO 205 15.9 µM | HCC 2998 16.3 µM | HCT-116 11.7 µM | HOP-92 13.9 µM | HT-29 14.4 µM | IGROV-1 16.5 µM | M14 11.9 µM | OVCAR-3 15.5 µM | OVCAR-4 16.4 µM | OVCAR-5 14.1 µM | RPMI-8226 9.64 µM | SK-MEL-2 14.2 µM | SNB-19 15.7 µM | UACC-257 13.6 µM

COc1nc(NC2OCC(OC(C)=O)C(OC(C)=O)C2OC(C)=O)c(/N=C\C=N\c2c(NC3OCC(OC(C)=O)C(OC(C)=O)C3OC(C)=O)nc(OC)n(C)c2=O)c(=O)n1C (stereo not given)
inactive: 786-0 > 100 µM | ACHN > 100 µM | COLO 205 > 100 µM | HCC 2998 > 100 µM | HCT-116 > 100 µM | HOP-92 > 100 µM | HT-29 > 100 µM | IGROV-1 > 100 µM | M14 > 100 µM | NCI-H522 > 100 µM | OVCAR-3 > 100 µM | OVCAR-4 > 100 µM | OVCAR-5 > 100 µM | RPMI-8226 > 100 µM | SK-MEL-2 > 100 µM | SNB-19 > 100 µM | UACC-257 > 100 µM

CC(C)(C)OC(=O)Cc1ccc2c(ccn2Cc2ccccc2)c1
inactive: 786-0 73.8 µM | ACHN > 100 µM | CCRF-CEM > 100 µM | COLO 205 44.1 µM | HCC 2998 > 100 µM | HCT-116 25.2 µM | HOP-92 79.3 µM | HT-29 17.2 µM | IGROV-1 > 100 µM | M14 > 100 µM | NCI-H522 44.2 µM | OVCAR-3 56.2 µM | OVCAR-4 83.6 µM | OVCAR-5 42.5 µM | SK-MEL-2 > 100 µM | SNB-19 > 100 µM | UACC-257 39.9 µM

O=C(/C=C/c1ccccc1)c1ccc(Cl)cc1Cl
inactive: 786-0 17.9 µM | ACHN 18.2 µM | CCRF-CEM 7.24 µM | COLO 205 20.5 µM | HCC 2998 23.3 µM | HCT-116 11.2 µM | HOP-92 35.9 µM | HT-29 16.8 µM | IGROV-1 18.5 µM | M14 23.2 µM | NCI-H522 13.4 µM | OVCAR-3 20 µM | OVCAR-4 20.7 µM | OVCAR-5 20.6 µM | RPMI-8226 3.76 µM | SNB-19 27.5 µM | UACC-257 23.8 µM
